From ChEMBL document CHEMBL1255498, “Moxifloxacin pharmacokinetics/pharmacodynamics and optimal dose and susceptibility breakpoint identification for treatment of disseminated Mycobacterium avium infection” (Antimicrob Agents Chemother, 2010)
In brackets after ≈: the same amount, converted by molar mass.

Experiments:
[1] = microbe, parasite or virus in culture; conditions: Mycobacterium avium, ATCC 700898, 168 h
[2] = Antimicrobial activity against Mycobacterium avium subsp. hominissuis ATCC 700898 infected in human THP1 cells in presence of 20% FBS; format: functional, cell-based; conditions: ATCC 700898, THP-1
[3] = microbe, parasite or virus in culture; conditions: Mycobacterium avium, ATCC 700898
[4] = microbe, parasite or virus in culture; conditions: Mycobacterium avium, ATCC 700898, 168 h; remark: listed apart in the source
[5] = Antimicrobial activity against Mycobacterium avium subsp. hominissuis ATCC 700898 infected in human THP1 cells in presence of 2% FBS; format: functional, cell-based; conditions: ATCC 700898, THP-1
Mycobacterium avium = assay: Antimicrobial activity against Mycobacterium avium by CLSI method
[6] = Antimicrobial activity against Mycobacterium avium subsp. hominissuis ATCC 700898 infected in human THP1 cells in presence of 10% FBS; format: functional, cell-based; conditions: ATCC 700898, THP-1

`COc1c(N2C[C@@H]3CCCN[C@@H]3C2)c(F)cc2c(=O)c(C(=O)O)cn(C3CC3)c12` [MOXIFLOXACIN] showed an EC50 [1] of no less than 32 µg/mL, an EC50 [2] of 5.21 µg/mL and an MIC [3] of 1 µg/mL (≈ 2.49 µM). The EC50 [4] was 8.24 µg/mL (≈ 20.5 µM), the EC50 [5] was 8.09 µg/mL and the MIC (Mycobacterium avium) was 1 µg/mL (≈ 2.49 µM). The EC50 [6] was 5.07 µg/mL.
